Structures are written as SMILES. Calls of active or inactive are those of the source. The calls are words filed in the database; no cut-off is given here. Where a SMILES comes first, the peptide text is derived from it. [ ]: non-standard residue; d: D form. Bounds are passed on as bounds.

Data on 9 molecules can be found in ChEMBL document CHEMBL1157299, “Alkaloids from Eschscholzia californica and their capacity to inhibit binding of [3H]8-Hydroxy-2-(di-N-propylamino)tetralin to 5-HT1A receptors in Vitro” (J Nat Prod, 2006).

Experiment [1] concerns the target T1, 5-hydroxytryptamine receptor 1A (Homo sapiens, UniProt P08908).
T1 sequence (P08908 whole entry): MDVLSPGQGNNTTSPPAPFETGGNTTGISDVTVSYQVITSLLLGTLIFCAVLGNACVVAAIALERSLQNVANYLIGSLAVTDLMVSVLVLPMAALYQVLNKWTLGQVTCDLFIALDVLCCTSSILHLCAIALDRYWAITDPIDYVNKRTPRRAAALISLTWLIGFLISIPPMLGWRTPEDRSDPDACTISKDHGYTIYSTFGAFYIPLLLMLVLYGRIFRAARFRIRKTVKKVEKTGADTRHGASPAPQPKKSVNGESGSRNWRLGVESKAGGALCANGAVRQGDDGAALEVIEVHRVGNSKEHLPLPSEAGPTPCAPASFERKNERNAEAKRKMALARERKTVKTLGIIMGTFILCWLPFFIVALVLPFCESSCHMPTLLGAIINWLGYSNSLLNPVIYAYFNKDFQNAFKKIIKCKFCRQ
As to the kind of experiment: (§1) Displacement of [3H]8-OH-DPAT from human recombinant 5HT1A receptor expressed in CHO cells. The class given is cell-based.

For the next experiment, the target named is T2, Substance-K receptor (Homo sapiens, UniProt P21452).
T2 sequence (P21452 whole entry): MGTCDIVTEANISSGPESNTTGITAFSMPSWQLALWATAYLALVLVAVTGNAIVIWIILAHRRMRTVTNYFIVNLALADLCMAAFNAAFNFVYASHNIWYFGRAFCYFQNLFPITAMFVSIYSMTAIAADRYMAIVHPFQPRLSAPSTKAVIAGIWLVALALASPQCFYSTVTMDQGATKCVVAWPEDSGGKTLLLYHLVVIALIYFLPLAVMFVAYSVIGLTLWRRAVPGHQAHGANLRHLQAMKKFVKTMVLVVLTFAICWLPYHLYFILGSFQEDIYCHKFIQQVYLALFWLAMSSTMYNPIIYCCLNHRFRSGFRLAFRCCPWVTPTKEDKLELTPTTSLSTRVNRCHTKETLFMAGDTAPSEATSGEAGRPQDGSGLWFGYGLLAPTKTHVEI
As to the kind of experiment: Displacement of [3H]SR48968 from human recombinant NK2 receptor expressed in CHO cells. The class given is cell-based. (In general: In a radioligand displacement assay an active substance lowers the binding of a labelled ligand.)

The target of another experiment is Substance-P receptor (Homo sapiens, UniProt P25103). As to the kind of experiment: Displacement of [3H]SR140333 from human recombinant NK1 receptor expressed in CHO cells. It counts as cell-based.
Experiment [2] concerns the target T3, 5-hydroxytryptamine receptor 1A (Homo sapiens) (UniProt P08908).
T3 sequence (whole entry): T1 sequence (P08908 whole entry)
Described as §1. The class given is cell-based.

A further experiment addresses Cytochrome P450 3A4 (Homo sapiens, UniProt P08684).

Cytochrome P450 3A4, sequence (P08684 whole entry): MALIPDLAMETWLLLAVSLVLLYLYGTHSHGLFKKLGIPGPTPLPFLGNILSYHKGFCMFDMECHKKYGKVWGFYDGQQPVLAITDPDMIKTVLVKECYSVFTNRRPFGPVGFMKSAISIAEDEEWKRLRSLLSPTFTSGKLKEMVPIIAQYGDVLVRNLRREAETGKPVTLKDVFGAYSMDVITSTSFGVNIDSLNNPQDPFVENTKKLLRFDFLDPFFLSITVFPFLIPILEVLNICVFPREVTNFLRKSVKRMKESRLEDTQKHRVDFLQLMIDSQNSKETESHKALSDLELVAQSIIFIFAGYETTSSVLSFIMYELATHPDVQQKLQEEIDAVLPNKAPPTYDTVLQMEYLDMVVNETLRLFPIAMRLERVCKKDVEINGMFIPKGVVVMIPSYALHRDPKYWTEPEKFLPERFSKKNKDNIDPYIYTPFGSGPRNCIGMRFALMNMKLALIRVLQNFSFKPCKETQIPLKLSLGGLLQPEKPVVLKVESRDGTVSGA
Substance-P receptor, sequence (P25103 whole entry): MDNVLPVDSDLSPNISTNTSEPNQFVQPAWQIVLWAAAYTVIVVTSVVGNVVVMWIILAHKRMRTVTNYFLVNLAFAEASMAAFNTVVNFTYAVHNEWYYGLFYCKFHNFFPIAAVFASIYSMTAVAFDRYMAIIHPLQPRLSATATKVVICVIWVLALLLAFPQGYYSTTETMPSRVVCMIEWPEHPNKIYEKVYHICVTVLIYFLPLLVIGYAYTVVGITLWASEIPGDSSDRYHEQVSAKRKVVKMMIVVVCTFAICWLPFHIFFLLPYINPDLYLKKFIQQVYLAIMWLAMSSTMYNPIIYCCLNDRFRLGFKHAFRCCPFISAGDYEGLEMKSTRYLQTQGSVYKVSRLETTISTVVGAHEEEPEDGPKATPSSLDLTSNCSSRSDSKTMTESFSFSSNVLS

Usually EC50 stands for the concentration at which the effect is half-maximal. As a reminder, the Ki is a measure of affinity in units of concentration, obtained from inhibition or displacement. Turning to `COc1cc2c(cc1O)C[C@H]1c3c(cc(OC)c(OC)c3-2)CCN1C`, in experiment [1], the EC50 stood at 0.16 µM and the Ki came to 0.085 µM.
On to `CC(C)[C@H](NC(=O)[C@@H](Cc1c[nH]c2ccccc12)NC(=O)[C@H](Cc1ccc(O)cc1)NC(=O)[C@@H](N)CC(=O)O)C(=O)N[C@H](Cc1c[nH]c2ccccc12)C(=O)N[C@H](Cc1c[nH]c2ccccc12)C(=O)N[C@@H](CCCCN)C(N)=O` (H-DY[dW]V[dW][dW]K-NH2), for which, at Substance-K receptor, the EC50 turned out to be 0.0781 µM.
For the molecule `Ic1ccccc1CN[C@@H]1C2CCN(CC2)[C@@H]1C(c1ccccc1)c1ccccc1` (relative stereo), on Substance-P receptor, the EC50 turned out to be 0.0244 µM.
A word on the IC50: it is the point on the concentration scale where inhibition reaches its midpoint. Low values mean greater potency, high ones weaker potency. Consider `C[N+]1(C)[C@H]2Cc3cc4c(cc3[C@@H]1Cc1cc3c(cc12)COC3)OCO4` [CALIFORNIDINE], for which the EC50 in experiment [1] is > 100 µM. For the same molecule, in experiment [2], the outcome was inactive. The IC50 against Cytochrome P450 3A4 was > 80 µM.
With `COc1cc2c(cc1O)[C@@H]1Cc3cc4c(cc3[C@H](C2)N1C)OCO4` [CARYACHINE], the EC50 in experiment [1] came out at 9 µM. In addition, the Activity in experiment [2] was determined as 5 µM.
Consider `CN1[C@H]2Cc3cc4c(cc3[C@@H]1Cc1cc3c(cc12)OCO3)OCO4` [ESCHOLTZINE], for which, in experiment [1], the EC50 is 11 µM and the inhibitory constant (Ki) came to 6 µM.
In the case of `COc1cc(-c2oc3cc(O)cc(O)c3c(=O)c2O[C@@H]2O[C@H](CO[C@@H]3O[C@@H](C)[C@H](O)[C@@H](O)[C@H]3O)[C@@H](O)[C@H](O)[C@H]2O)ccc1O` [NARCISSIN], the IC50 against Cytochrome P450 3A4 was > 80 µM.
For the molecule `CN1CCc2cc3c(cc2C(=O)Cc2ccc4c(c2C1)OCO4)OCO3` [PROTOPINE], in experiment [1], the EC50 is > 100 µM. Further, the IC50 at Cytochrome P450 3A4 was > 80 µM.
Take `O=c1c(O)c(-c2ccc(O)c(O)c2)oc2cc(O)cc(O)c12` [QUERCETIN]: the EC50 in experiment [1] was > 100 µM. In addition, the result in experiment [2] was inactive.
